Assay results as given in article PMC12105006, “AI-Driven De Novo Design and Development of Nontoxic DYRK1A Inhibitors” (Journal of Medicinal Chemistry, 2025).
“Also recorded” adds a separate entry of the source. Read-outs that look alike come from different tables or passages of the source.

Columns and labels:
[1] = Oxygen radical absorbance capacity (ORAC) antioxidant assay
BV2 microglial cells = assay: MTT cell viability / toxicity in BV2 cells; type: cell-based, mouse
Description: (§1) The mouse microglial BV2 cell line was propagated using DMEM, 10% FBS, 1% streptomycin–penicillin, under humidified 5% CO2 and 95% air. On attaining semiconfluence, cells were treated with 400 ng/mL of LPS for 24 h. Some cultures were pretreated for 1 h with the different compounds at several concentrations ranging from 1 to 10 μM. After treatment, cultures were processed for cell viability and nitrite production. Experiments were performed in triplicate. BV2 cells, microglial cells derived from C57/BL6 murine. These cells were immortalized using the v-raf/v-myc carrying J2 retrovirus, resulting in a stable cell line. The cells are commercially available from https://www.cytion.com/BV2-Cells/305156.
Cell viability was determined using the MTT assay, which measures the reduction of 3-(4,5-dimethylthiazol-2-yl)-2,5-diphenyltetrazolium bromide (MTT) to formazan crystals. Briefly, the MTT solution (2 mg/mL) was added to each well and incubated at 37 °C for 2 h. After removing the culture medium, 100 μL of dimethyl sulfoxide was added to each well to dissolve the formazan. The optical density was measured at 532 nm using a microplate reader. The absorbance of the control group was considered as 100% of the cell viability.

[2] = test system: LPS-induced NO production in BV2 microglial cells; assay: LPS-induced nitrite (NO) production, Griess reaction; type: cell-based, mouse; settings: for dose-dependent inhibition of LPS-induced NO production: decreasing concentrations (Figures S17, S18); for LPS-induced NO production: maximum dose 5 μM (1, 5, 8, 9) or 10 μM (6, 7, 10, 11), LPS 24 h, 1 h pretreatment
Description: as §1
The assessment of NO production involved quantifying nitrite levels, one of the end products of NO oxidation, through a procedure based on the diazotization of nitrite by sulfanilic acid (Griess reaction). Upon reaching semiconfluence, cells were exposed to 400 ng/mL of LPS for 24 h. Before this, certain cultures were pretreated with various compounds at concentrations ranging from 0.5 to 10 μM. Following a 24-h incubation period, 50 μL aliquots of the samples were combined with 50 μL of Griess reagent in 96-well plates, and the mixture was allowed to incubate at room temperature for 10 min. The absorbance of the resulting mixture was then measured at 520 nm using a microplate reader.

PAMPA-BBB assay = type: in vitro ADME; settings: for BBB prediction: PAMPA-BBB, porcine brain lipid, 3 h, 25 °C
Description: The brain penetration of active compounds was assessed using a parallel artificial membrane permeability assay (PAMPA). Eleven drugs with known blood–brain barrier (BBB) permeability–Hydrocortisone, testosterone, imipramine, piroxicam, promazine, clonidine, desipramine, ofloxacin, aldosterone, verapamil, and caffeine–were included in each experiment to validate the analysis.
The compounds were dissolved in a 70/30 PBS pH = 7.4 buffer/ethanol solution at a concentration that ensured appropriate absorbance values in the UV–vis light spectrum. A 5 mL volume of these solutions was filtered using PDVF membrane filters (30 mm diameter, 0.45 μ m pore size).
The acceptor 96-well microplate (MultiScreen 96-well Culture Tray clear, Merck Millipore) was filled with 200 μL of PBS/ethanol (70/30). The donor 96-well filtrate plate (Multiscreen IP Sterile Plate PDVF membrane, 0.45 μ m pore size, Merck Millipore) was coated with 4 μL of porcine brain lipid (Spectra 2000) in dodecane (20 mg mL^–1).
After 5 min, 200 μL of each compound solution were added. The donor plate was then carefully placed onto the acceptor plate to form a “sandwich,” which was left undisturbed for 3 h at 25 °C. During this time, the compounds diffused from the donor plate through the brain lipid membrane into the acceptor plate.
After incubation, the donor plate was removed. The concentrations of the compounds and commercial drugs were determined by measuring absorbance in the donor wells (before incubation) and the acceptor wells (after incubation) using a CLARIOstar microplate reader (BMG LABTECH). Each sample was analyzed at five wavelengths in four replicates and two independent experiments.
The permeability coefficient (P e) of each drug, in centimeters per second, was calculated using the following formula Pe=Vd·Vr/(Vd−Vr)·s·t·100·Vd/100·Vd−%T(Vd−Vr) %T=Vr·Ar/Ad·Vd·100 where V d and V r are the volumes of the donor and receptor solutions (0.2 cm^3), s is the membrane area (0.2642 cm^2), t is the incubation time (3 h = 10,800 s), A r is the absorbance of the receptor plate after the experiment, and A d is the absorbance in the donor compartment before incubation. The results obtained for quality control drugs were compared with permeability data from the literature. […] Compounds that correlate with reported P e values between 2 and 4 × 10^–6 cm s^–1 are classified as CNS+/–.

Human DYRK1A Kinase = Human DYRK1A Kinase (Homo sapiens, UniProt Q13627); assay: ADP-Glo DYRK1A kinase enzyme inhibition assay; settings: for IC50: read-out: IC50 (nM) DYRK1A, ATP (10 μmol/well) and DYRKtidE (4 μmol/well) as substrate, triplicate
DYRK1B = DYRK1B (Homo sapiens, UniProt Q9Y463); assay: ADP-Glo DYRK1B kinase enzyme inhibition assay; settings: read-out: IC50 (nM) DYRK1B; ATP (10 μmol/well) and DYRKtidE (4 μmol/well) as substrate; triplicate
Sequence of DYRK1B (Q9Y463 whole entry): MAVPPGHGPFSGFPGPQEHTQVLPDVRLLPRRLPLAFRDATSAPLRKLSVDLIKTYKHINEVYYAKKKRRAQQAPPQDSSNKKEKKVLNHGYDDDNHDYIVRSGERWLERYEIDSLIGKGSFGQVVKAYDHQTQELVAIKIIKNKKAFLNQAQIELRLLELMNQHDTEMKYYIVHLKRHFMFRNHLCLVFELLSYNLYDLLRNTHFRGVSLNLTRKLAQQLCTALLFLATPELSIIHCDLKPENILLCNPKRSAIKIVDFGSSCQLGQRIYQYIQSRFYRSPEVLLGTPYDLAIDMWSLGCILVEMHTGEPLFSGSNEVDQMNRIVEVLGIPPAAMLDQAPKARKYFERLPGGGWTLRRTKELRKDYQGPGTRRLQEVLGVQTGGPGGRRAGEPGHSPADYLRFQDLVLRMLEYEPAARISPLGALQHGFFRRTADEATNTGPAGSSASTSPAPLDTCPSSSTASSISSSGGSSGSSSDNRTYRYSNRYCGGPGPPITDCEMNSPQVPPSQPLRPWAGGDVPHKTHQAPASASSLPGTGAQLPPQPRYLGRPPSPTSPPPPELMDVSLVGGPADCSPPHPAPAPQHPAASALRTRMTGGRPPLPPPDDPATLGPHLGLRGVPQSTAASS

[3] = phosphate buffer pH 7.4, fluorescein/AAPH

SMILES | IC50 (Human DYRK1A Kinase) [nM] | IC50 (DYRK1B) [nM] | ability to cross the blood–brain barrier by passive permeation (PAMPA-BBB assay; PAMPA) | ORAC [1] | ORAC [1, 3] | toxicity (MTT assay) (BV2 microglial cells; at 5 μM) | toxicity (MTT assay) (BV2 microglial cells; at 10 μM) | dose-dependent inhibition of LPS-induced NO production [2] | LPS-induced NO production [2] | BBB prediction (PAMPA-BBB assay) | DYRK1A activity / IC50 values (Human DYRK1A Kinase) | ORAC values [1] | toxicity (MTT assay) (BV2 microglial cells; concentrations up to 10 μM)
CN1CCC(n2cc(-c3cnc4[nH]cc(-c5cccc(F)c5)c4c3)cn2)CC1 [Compound 1, 3-(3-fluorophenyl)-5-(1-(1-methylpiperidin-4-yl)-1H-pyrazol-4-yl)-1H-pyrrolo[2,3-b]pyridine] | 41 ± 3 | 78 ± 3 |  | 1.02 ± 0.03 | 1.02 ± 0.03 μmol of trolox equivalents/μmol of tested compound | nontoxic | exhibited toxicity | particularly strong | most pronounced effects | CNS+ (CNS+, correlating with a bibliographic P e > 4) | activity at the nanomolar level; also recorded: comparable to the reference compound, harmine |  | 
CN1CCC(n2cc(-c3cnc4[nH]cc(-c5cc(Cl)cc(Cl)c5)c4c3)cn2)CC1 [Compound 6, 3-(3,5-Dichlorophenyl)-5-(1-(1-methylpiperidin-4-yl)-1H-pyrazol-4-yl)-1H-py-rrolo[2,3-b]pyridine] |  | 577 ± 49 |  |  |  |  |  |  |  | CNS+ (CNS+, correlating with a bibliographic P e > 4) |  | around 0.5 trolox equivalents | nontoxic
Fc1cccc(-c2c[nH]c3ncc(-c4cnn(C5CCNCC5)c4)cc23)c1 [Compound 8, 3-(3-Fluorophenyl)-5-(1-(piperidin-4-yl)-1H-pyrazol-4-yl)-1H-pyrrolo[2,3-b]py-ridine] | 48 ± 3 | 70 ± 5 |  | 1.0 ± 0.1 | 1.0 ± 0.1 μmol of trolox equivalents/μmol of tested compound | nontoxic | exhibited toxicity | particularly strong | most pronounced effects | CNS+ (CNS+, correlating with a bibliographic P e > 4) | comparable to the reference compound, harmine |  | 
COc1cc(-c2c[nH]c3ncc(-c4cnn(C5CCNCC5)c4)cc23)c(F)cc1C [Compound 11, 3-(2-Fluoro-5-methoxy-4-methylphenyl)-5-(1-(piperidin-4-yl)-1H-pyrazol-4-yl)-1H-pyrrolo[2,3-b]pyridine] | 165 ± 17 | 165 ± 30 |  | 1.20 ± 0.1 | 1.2 ± 0.1 μmol of trolox equivalents/μmol of tested compound |  |  |  |  | CNS+ (CNS+, correlating with a bibliographic P e > 4) |  |  | nontoxic

Continued by falling IC50 (DYRK1B), values first:

IC50 (Human DYRK1A Kinase) [nM] | IC50 (DYRK1B) [nM] | ability to cross the blood–brain barrier by passive permeation (PAMPA-BBB assay; PAMPA) | SMILES | ORAC [1] | ORAC [1, 3] | toxicity (MTT assay) (BV2 microglial cells; at 5 μM) | toxicity (MTT assay) (BV2 microglial cells; at 10 μM) | dose-dependent inhibition of LPS-induced NO production [2] | LPS-induced NO production [2] | BBB prediction (PAMPA-BBB assay) | DYRK1A activity / IC50 values (Human DYRK1A Kinase) | ORAC values [1] | toxicity (MTT assay) (BV2 microglial cells; concentrations up to 10 μM)
450 ± 18 | 566 ± 61 | in the limit of a positive prediction | Clc1cc(Cl)cc(-c2c[nH]c3ncc(-c4cnn(C5CCNCC5)c4)cc23)c1 [Compound 10, 3-(3,5-Dichlorophenyl)-5-(1-(piperidin-4-yl)-1H-pyrazol-4-yl)-1H-pyrrolo[2,3-b]pyridine] | 0.55 ± 0.07 | 0.55 ± 0.07 μmol of trolox equivalents/μmol of tested compound |  |  |  |  | CNS+/– (Compounds that correlate with reported P e values between 2 and 4 × 10^–6 cm s^–1 are classified as CNS+/–) |  | around 0.5 trolox equivalents | nontoxic
 | 174 ± 31 |  | COc1cc(-c2c[nH]c3ncc(-c4cnn(C5CCN(C)CC5)c4)cc23)c(F)cc1C [Compound 7, 3-(2-Fluoro-5-methoxy-4-methylphenyl)-5-(1-(1-methylpiperidin-4-yl)-1H-py-razol-4-yl)-1H-pyrrolo[2,3-b]pyridine] | 1.3 ± 0.1 | 1.3 ± 0.1 μmol of trolox equivalents/μmol of tested compound |  |  |  |  | CNS+ (CNS+, correlating with a bibliographic P e > 4) |  |  | nontoxic
79 ± 5 | 119 ± 11 |  | COc1cccc(-c2c[nH]c3ncc(-c4cnn(C5CCN(C)CC5)c4)cc23)c1 [Compound 5, 3-(3-Methoxyphenyl)-5-(1-(1-methylpiperidin-4-yl)-1H-pyrazol-4-yl)-1H-pyrro-lo[2,3-b]pyridine] | 1.25 ± 0.07 | 1.25 ± 0.07 μmol of trolox equivalents/μmol of tested compound | nontoxic | exhibited toxicity | particularly strong |  | CNS+ (CNS+, correlating with a bibliographic P e > 4) | comparable to the reference compound, harmine |  | 
81 ± 4 | 109 ± 8 |  | COc1cccc(-c2c[nH]c3ncc(-c4cnn(C5CCNCC5)c4)cc23)c1 [Compound 9, 3-(3-Methoxyphenyl)-5-(1-(piperidin-4-yl)-1H-pyrazol-4-yl)-1H-pyrrolo[2,3-b]pyridine] | 1.3 ± 0.1 | 1.3 ± 0.1 μmol of trolox equivalents/μmol of tested compound | nontoxic | exhibited toxicity | particularly strong |  | CNS+ (CNS+, correlating with a bibliographic P e > 4) | comparable to the reference compound, harmine |  | 
